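A five-concentration, 48-hour dose response in 96-well plates underlies each endpoint, interpolated linearly between surrounding concentrations. At the GI50, growth is halved. TGI is the concentration that stops growth completely.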
How the values were obtained:
Experiment in all cases: NCI-60 cell line screen, 48 h
SNB-75 CNS = system: SNB-75 CNS
HT29 colon = system: HT29 colon
A549 NSCLC = system: A549 NSCLC
ACHN renal = system: ACHN renal
CCRF-CEM leukemia = system: CCRF-CEM leukemia
RPMI-8226 leukemia = system: RPMI-8226 leukemia
K-562 leukemia = system: K-562 leukemia
EKVX NSCLC = system: EKVX NSCLC
BT-549 breast = system: BT-549 breast
HCT-116 colon = system: HCT-116 colon
HCT-15 colon = system: HCT-15 colon
A498 renal = system: A498 renal
IGROV1 ovarian = system: IGROV1 ovarian
HS 578T breast = system: HS 578T breast
OVCAR-4 ovarian = system: OVCAR-4 ovarian
SK-MEL-28 melanoma = system: SK-MEL-28 melanoma
SF-539 CNS = system: SF-539 CNS
U251 CNS = system: U251 CNS
UACC-62 melanoma = system: UACC-62 melanoma
UACC-257 melanoma = system: UACC-257 melanoma
MCF7 breast = system: MCF7 breast
UO-31 renal = system: UO-31 renal
COLO 205 colon = system: COLO 205 colon
NCI-H522 lung = system: NCI-H522 lung
HL-60(TB) leukemia = system: HL-60(TB) leukemia
PC-3 prostate = system: PC-3 prostate
HOP-92 NSCLC = system: HOP-92 NSCLC
OVCAR-8 ovarian = system: OVCAR-8 ovarian

With `COc1ccc(-c2nc(S(=O)(=O)c3ccccc3)c(S(=O)CC(=O)N3CCC(C)CC3)o2)cc1` (stereo unspecified) the GI50 (SNB-75 CNS) was 4.16 µM, the TGI (SNB-75 CNS) was 15.2 µM and the GI50 (HT29 colon) was 2.58 µM. The TGI (HT29 colon) was 10.1 µM, the GI50 (A549 NSCLC) was 7.59 µM and the TGI (A549 NSCLC) was 21.1 µM. The GI50 (ACHN renal) was 1.68 µM, the TGI (ACHN renal) was 3.13 µM and the GI50 (CCRF-CEM leukemia) was 2.82 µM. The TGI (CCRF-CEM leukemia) was 8.63 µM, the GI50 (RPMI-8226 leukemia) was 1.25 µM and the TGI (RPMI-8226 leukemia) was 4.02 µM. It also gave a GI50 (K-562 leukemia) of 0.198 µM, a TGI (K-562 leukemia) of 3.03 µM and a GI50 (EKVX NSCLC) of 3.69 µM. It also gave a TGI (EKVX NSCLC) of 13.7 µM, a GI50 (BT-549 breast) of 1.73 µM and a TGI (BT-549 breast) of 3.77 µM. It also gave a GI50 (HCT-116 colon) of 1.72 µM, a TGI (HCT-116 colon) of 3.2 µM and a GI50 (HCT-15 colon) of 1.27 µM. It also gave a TGI (HCT-15 colon) of 2.86 µM, a GI50 (A498 renal) of 2.46 µM and a TGI (A498 renal) of 9.79 µM. It also gave a GI50 (IGROV1 ovarian) of 2.17 µM, a TGI (IGROV1 ovarian) of 6.27 µM and a GI50 (HS 578T breast) of 5.86 µM. The TGI (HS 578T breast) was 27 µM, the GI50 (OVCAR-4 ovarian) was 3.31 µM and the TGI (OVCAR-4 ovarian) was 13 µM. It also gave a GI50 (SK-MEL-28 melanoma) of 2.15 µM, a TGI (SK-MEL-28 melanoma) of 4.36 µM and a GI50 (SF-539 CNS) of 1.8 µM. The TGI (SF-539 CNS) was 3.52 µM, the GI50 (U251 CNS) was 3.06 µM and the TGI (U251 CNS) was 10.6 µM. It also gave a GI50 (UACC-62 melanoma) of 1.67 µM, a TGI (UACC-62 melanoma) of 3.6 µM and a GI50 (UACC-257 melanoma) of 2.1 µM. The TGI (UACC-257 melanoma) was 5.05 µM, the GI50 (MCF7 breast) was 1.45 µM and the TGI (MCF7 breast) was 3.44 µM. For the same molecule, the GI50 (UO-31 renal) was 1.26 µM, the TGI (UO-31 renal) was 2.57 µM and the GI50 (COLO 205 colon) was 2.04 µM. It also gave a TGI (COLO 205 colon) of 3.86 µM, a GI50 (NCI-H522 lung) of 1.44 µM and a TGI (NCI-H522 lung) of 3.39 µM. The GI50 (HL-60(TB) leukemia) was 1.61 µM, the TGI (HL-60(TB) leukemia) was 8.35 µM and the GI50 (PC-3 prostate) was 3.55 µM. It also gave a TGI (PC-3 prostate) of 15.7 µM, a GI50 (HOP-92 NSCLC) of 1.62 µM and a TGI (HOP-92 NSCLC) of 3.63 µM. For the same molecule, the GI50 (OVCAR-8 ovarian) was 2.44 µM and the TGI (OVCAR-8 ovarian) was 6.59 µM.
